Results taken from patent US11666661B2, “Methods and compounds for targeted autophagy” (THE REGENTS OF THE UNIVERSITY OF CALIFORNIA, priority 2018, dated 2023).

How the values were obtained:
Assay type in all cases: binding
[1] = biological target: LC3A (C17) (Homo sapiens, UniProt Q9H492); assay: gel-based ABPP screen of cysteine-reactive covalent ligands against IA-alkyne labeling of LC3A; conditions: for hit that displaced IA-alkyne probe labeling of C17 on LC3A (loss of in-gel fluorescence): pure LC3A protein
Excerpt: The critical part of this platform was to first develop a small-molecule recruiter for an autophagy adapter. We performed chemoproteomics-enabled covalent ligand discovery against the autophagy adapter LC3A, an important autophagy protein involved in substrate recognition, to discover an LC3A-recruiter, which can be combined with a protein targeting ligand via a linker to enable targeted protein autophagy of undruggable targets. […] While the NETS-ester probe appeared to label multiple sites on LC3A, the IA-alkyne probe apparently labeled one site, consistent with only one cysteine within LC3A-C17. Across the LC3 proteins, LC3A is the only protein that bears one cysteine. We next screened our cysteine-reactive covalent ligand library against iodoacetamide-alkyne (IA-alkyne) labeling of C17 on LC3A, and looked for hits that displaced probe-labeling resulting in loss of fluorescence by gel. Through this effort, we identified several cysteine-reactive acrylamide hits, including TRH 1-65, TRH 1-68, TRH 1-170, TRH 1-171, YP 1-44, CC 1-42, CC 1-48, EN2, EN7, EN35, and EN40 (FIGS. 5A-5D). These small-molecule recruiters or analogs of these chemical scaffolds that also bind to LC3A C17 can now be appended to linkers and protein targeting ligands to send specific protein cargo, and associated cellular contents, compartments, cells, or organelles off for targeted protein autophagy and lysososomal degradation. […] Examples of compounds that can be appended onto an autophagy adapter recruiter is JQ1, an inhibitor of bromodomain-containing BRD4 protein (an epigenetic regulator implicated in numerous human cancers). JQ1 can be appended to a linker, and an LC3A recruiter EN7 to degrade BRD4 in cells (FIGS. 7A-7C). Protein autophagy degrader can also be used to broadly recognize misfolded proteins and protein aggregates by conjugating thioflavin T, a general aggregate-protein recognizing compound, to a linker and EN7 to send these toxic protein aggregates and misfolded proteins to the autophagosome for lysosomal degradation (FIG. 8).

[2] = biological target: LC3A (Homo sapiens, UniProt Q9H492); assay: Gel-based ABPP analysis against LC3A; conditions: IA-alkyne probe
Procedure: FIGS. 5A-5D. Covalent ligand screen against LC3A. Gel-based ABPP screen of cysteine-reactive ligand library against IA-alkyne labeling of LC3A. Cysteine-reactive covalent ligands were pre-incubated with LC3A pure protein (50 microM) for 30 min at room temperature prior to IA-alkyne labeling of the protein (10 microM) for 30 min at room temperature. Proteins were run on SDS/PAGE and in-gel fluorescence was analyzed.

[3] = biological target: p62/SQSTM1 protein (Homo sapiens, UniProt Q13501); assay: MS/MS of direct adduct on a peptide derived from p62/SQSTM1
Excerpt: FIG. 14. MS/MS data corresponding to the direct adduct of EN96 on a peptide derived from p62/SQSTM1.

[4] = biological target: SQSTM1 (p62) (Homo sapiens, UniProt Q13501); assay: gel-based ABPP cysteine-reactive covalent ligand screen against SQSTM1 (p62); conditions: FIGS. 10A-10B
Excerpt: We have performed a cysteine-reactive covalent ligand screen against the autophagy adapter protein SQSTM1 (p62) using gel-based activity-based protein profiling (ABPP) approaches. We have identified several hit compounds that targeted a cysteine on SQSTM1 (FIGS. 10A-10B). […] To test whether we can use this potential SQSTM1 recruiter EN96 in a TADT platform, we synthesized BMF-1-64, which links EN96 to a BRD4 inhibitor JQ1, to determine whether we could degrade BRD4 in a proteasome-independent manner (FIG. 11).

Chain of p62/SQSTM1 protein (Q13501 whole entry): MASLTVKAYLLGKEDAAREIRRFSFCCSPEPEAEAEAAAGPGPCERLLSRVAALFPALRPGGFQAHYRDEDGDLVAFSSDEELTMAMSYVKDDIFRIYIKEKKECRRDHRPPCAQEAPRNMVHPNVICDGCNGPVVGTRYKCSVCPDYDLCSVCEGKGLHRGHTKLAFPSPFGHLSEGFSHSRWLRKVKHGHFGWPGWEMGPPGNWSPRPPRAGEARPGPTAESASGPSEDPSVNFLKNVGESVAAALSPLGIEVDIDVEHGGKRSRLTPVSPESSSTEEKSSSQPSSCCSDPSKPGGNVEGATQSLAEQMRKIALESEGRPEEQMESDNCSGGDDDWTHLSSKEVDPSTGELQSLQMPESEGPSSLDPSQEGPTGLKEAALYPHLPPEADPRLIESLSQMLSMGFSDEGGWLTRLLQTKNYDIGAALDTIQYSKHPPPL
Chain of SQSTM1 (p62) (Q13501 whole entry): as above

| hit that displaced IA-alkyne probe labeling of C17 on LC3A (loss of in-gel fluorescence) [1] | Compound | further results |
| --- | --- | --- |
| hits | C=CC(=O)N1CCC(C)C(c2ccco2)C1 (centres unmarked) [EN40] | – |
| hits | C=CC(=O)N=C1N=C2C=CC(I)=CN2Cc2ccccc21 [EN7] | targeting of C17 of LC3A, lowest concentration [2]: ≥ 1 µM; concentration down to which the compound binds LC3A ([1]; FIG. 6): ≥ 1 µM |
| hits | C=CC(=O)NC(c1ccco1)c1ccccc1OC (centres unmarked) [EN35] | – |
| – | C=CCOc1ccccc1CN(C(=O)CCl)c1ccc2c(c1)OCO2 [EN96] | cysteine of p62/SQSTM1 modified [3]: reacts with C113; potency ranking among covalent ligand hits against SQSTM1 [4]: most potent covalent ligand against SQSTM1 |
| hits | C=CC(=O)NCc1ccc(C(=O)N2CCC(c3nc4ccccc4s3)CC2)cc1 [EN2] | – |
